One compound from patent US20060160869A1, “Ubiquitin ligase inhibitors” (Rigel Pharmaceuticals, Inc., priority 2005, published 2006) can be followed below.

The target in one data set is MDM2 (Homo sapiens, UniProt Q00987). As to the kind of experiment: Plate-based E3 ligase assay, MDM2 autoubiquitination (MDM2-FLAG). The class given is biochemical. As to conditions: Table 2; read-out: MDM2 IC50. How it is done: (§1) E3 (His-APC11/APC2—“APC”) auto-ubiquitination was measured as described in U.S. patent application Ser. No. 09/826,312 (Publication No. US-2002-0042083-A1), which is incorporated herein in its entirety. Details of the protocol are described below. Activity in the presence of the compound was determined relative to a parallel control in which only DMSO was added. Values of the IC50 were typically determined using 6 or 8 different concentrations of the compound, although as few as 2 concentrations may be used to approximate the IC50 value.
(§2) Nickel-coated 96-well plates (Pierce 15242) were blocked for 1 hour with 100 μl of blocking buffer at room temperature. The plates were washed 4 times with 225 μl of 1×PBS and 80 μl of the reaction buffer were added that contained 100 ng/well of Flag-ubiquitin. To this, 10 μl of the test compound diluted in DMSO were added. After the test compound was added, 10 μl of E1 (human), E2 (Ubch5c), and APC in Protein Buffer was added to obtain a final concentration of 5 ng/well of E1, 20 ng/well: of E2 and 100 ng/well of APC. The plate were shaken for 10 minutes and incubated at room temperature for 1 hour. After incubation, the plates were washed 4 times with 225 μl of 1×PBS and 100 μl/well of Antibody Mix were added to each well. The plates were incubate at room temperature for another hour after which they were washed 4 times with 225 μl of 1×PBS and 100 μl/well of Lumino substrate were added to each well. The luminescence was measured by using a BMG luminescence microplate reader.
In similar manner, autoubiquitination of the E3 MDM2 was determined (MDM2-FLAG). Further instruction in such assays can be found in U.S. patent application Ser. No. 10/108,767 (Publication No. US-2003-0104474 A1), which is incorporated herein in its entirety.
hMDM2 Plate/Gel is Mouse double minute 2, human homolog. This protein belongs to the E3 RING finger ligase group.

The target in data set [1] is E3 (His-APC11/APC2, "APC") (Homo sapiens, UniProt Q9NYG5+Q9UJX6). Put plainly: Plate-based E3 ligase assay (APC FLAG), auto-ubiquitination. The class given is biochemical. As to conditions: Table 2; read-out: APC IC50. How it is done: as §1, §2
APC Plate/gel is Anaphase Promoting Complex. This protein also belongs to E3 RING finger ligase group.

The subject of data set [2] is p53 reporter system in p53 wild-type U2OS cell line. Put plainly: p53-dependent transcription reporter assay, U20SRE. In kind it is cell-based. As to conditions: p53 +ve cell type; maximal fold induction over DMSO control. From the text:
(§3) Stable lines of U2OS (osteosarcoma; Wild-type p53 positive), HCT116 (colorectal carcinoma; Wild-type p53 positive) and H1299 (lung non-small cell carcinoma; p53 null) carrying p53-dependent transcriptional regulatory element linked to a Luciferase reporter gene and H1299 carrying a 5′-regulatory region of GADD45 linked to Luciferase were used.
Day 1: Cells were re-plated into 96-well plates at suitable densities to make 50-60% confluence on Day 2. The plating densities are as follows: 7.5×10^3 cells/well (or 2.5×10^4 cells/cm^2) for U2OS; 1.5×10^4 cells/well (or 5.0×10^4 cells/cm^2) for HCT116; and 1.0×10^4 cells/well (or 3.3×10^4 cells/cm^2) for H1299.
(§4) Day 2: The compounds or control drugs were diluted in dimethyl sulfoxide (DMSO) and added to the wells to create 6-points/2-fold serial dilution (20, 10, 5, 2.5, 1.25, 0.625 and 0 μM) for each compound. The DMSO concentration was adjusted to 0.2% in all wells.
(§5) Day 3: Twenty to 24 hours after compound addition, cells were twice washed with PBS and lysed with Glo-lysis buffer (100 μl/well, Promega; Cat#E2661). Plates were subjected to gentle agitation on a table-top shaker for 5 minutes at room temperature. Fifty μl of lysate was transferred to an assay plate to test for luciferase activity and mixed with 2× assay buffer (Promega; Cat# E1483). The reaction mixture was left at room temperature for 2 minutes and then luminescence was measure by a luminometer (Victor™, 1420 Multilabel Counter, Wallac).
(§6) Data analysis was done on Excel software (Microsoft). Values in Table 4 represent maximal fold induction over negative control (DMSO only) and are the mean of at least duplicate experiments.
U20SRE is a p53 wild-type U2OS cell line containing p53 reporter system. If the compound acts against MDM2, p53 activity increases.
In general terms: In a reporter assay the amount or activity of a reporter protein is the signal.

Data set [3] has as its system p53 reporter system in p53 wild-type A549 cell line. As to the kind of experiment: p53-dependent transcription reporter assay, A549RE. The class given is cell-based. As to conditions: p53 +ve cell type; maximal fold induction over DMSO control. The protocol:
as §3, §4, §5, §6
A549RE is a p53 wild-type A549 cell line containing p53 reporter system. If the compound acts against MDM2, p53 activity increases.

E3 (His-APC11/APC2, "APC"), sequence (Q9NYG5 whole entry): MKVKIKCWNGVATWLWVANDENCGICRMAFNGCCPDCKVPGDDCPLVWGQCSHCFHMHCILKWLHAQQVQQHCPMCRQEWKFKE
E3 (His-APC11/APC2, "APC"), sequence (Q9UJX6 whole entry): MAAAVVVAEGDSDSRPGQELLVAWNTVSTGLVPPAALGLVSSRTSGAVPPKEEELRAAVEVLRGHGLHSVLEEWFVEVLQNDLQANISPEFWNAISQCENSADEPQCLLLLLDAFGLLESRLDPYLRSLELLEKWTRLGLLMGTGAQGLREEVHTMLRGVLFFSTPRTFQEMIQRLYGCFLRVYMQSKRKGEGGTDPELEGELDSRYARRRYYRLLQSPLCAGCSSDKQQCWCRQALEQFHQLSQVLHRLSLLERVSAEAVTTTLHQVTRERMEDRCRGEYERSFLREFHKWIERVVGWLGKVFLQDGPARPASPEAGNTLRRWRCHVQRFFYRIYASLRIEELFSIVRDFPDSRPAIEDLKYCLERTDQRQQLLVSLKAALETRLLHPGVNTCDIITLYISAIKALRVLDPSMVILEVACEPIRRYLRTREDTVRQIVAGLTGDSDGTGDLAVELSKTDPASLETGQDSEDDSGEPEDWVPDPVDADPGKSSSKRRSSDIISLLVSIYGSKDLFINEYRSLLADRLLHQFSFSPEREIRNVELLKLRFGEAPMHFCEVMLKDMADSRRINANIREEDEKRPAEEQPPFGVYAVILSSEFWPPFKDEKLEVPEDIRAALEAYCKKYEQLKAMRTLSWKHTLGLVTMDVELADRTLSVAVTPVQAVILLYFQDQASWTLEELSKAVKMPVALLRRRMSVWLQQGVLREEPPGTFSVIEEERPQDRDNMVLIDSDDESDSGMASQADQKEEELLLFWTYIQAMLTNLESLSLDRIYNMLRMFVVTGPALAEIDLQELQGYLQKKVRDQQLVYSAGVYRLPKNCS
MDM2, sequence (Q00987 whole entry): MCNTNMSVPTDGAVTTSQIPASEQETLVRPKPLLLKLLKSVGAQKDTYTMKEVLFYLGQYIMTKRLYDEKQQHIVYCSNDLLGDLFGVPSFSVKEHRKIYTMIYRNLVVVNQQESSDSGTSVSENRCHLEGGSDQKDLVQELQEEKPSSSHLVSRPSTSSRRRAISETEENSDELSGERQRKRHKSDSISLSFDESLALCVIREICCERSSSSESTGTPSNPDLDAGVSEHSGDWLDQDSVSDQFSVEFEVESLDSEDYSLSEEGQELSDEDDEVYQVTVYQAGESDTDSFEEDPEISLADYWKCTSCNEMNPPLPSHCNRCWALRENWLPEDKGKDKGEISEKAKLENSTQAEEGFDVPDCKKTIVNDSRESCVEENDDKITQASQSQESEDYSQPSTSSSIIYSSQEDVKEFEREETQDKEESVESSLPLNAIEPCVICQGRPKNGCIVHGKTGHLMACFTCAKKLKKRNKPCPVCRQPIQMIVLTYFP

As to `CC(C)N(CCN(Cc1ccc(C(=O)N2CCNCC2)cc1)c1nc(-c2cccc([N+](=O)[O-])c2)cs1)C(C)C` [compound 233], the IC50 (at MDM2; in data set [1]) was at least 20 µM throughout. The “Fold Induction of p53 activity, U20SRE” value in data set [2] is listed as “a (a means 2 or less)”. Besides, in data set [3], the “Fold Induction of p53 activity, A549RE” value is given as “a (a means 2 or less)”.

The term IC50 denotes the point on the concentration scale where inhibition reaches its midpoint.
